From US20250188041A1, “NEW COMPOUNDS AND TREATMENT OF RENAL CELL CARCINOMA” (Trustlife Global Inc., priority 2022, published 2025)
Entries after “also recorded” stand apart in the source; their conditions may differ.

Assays:
Type in all cases: cell-based, Human
[1] = test system: Caki-1 cells; assay: MTT cell viability assay of Caki-1 treated with TG-101209 and its alternatives; details: for IC50: Homo sapiens, FIG. 43, assay not named, presumably Caki-1 cell viability; for cell viability (MTT assay) / Ranking, Cell viability (%): 1 day; for Ranking, Cell viability (%): top five target drugs, MTT assay, 10 μM, rank 1 = greatest reduction
Protocol: (§1) Cell culture 2: Caki-1 was purchased from CLS Cell Lines Service (Germany). The cells were maintained in McCoy's SA (modified) medium (16600082, Thermo Fisher Scientific, USA) and supplemented with 10% fetal bovine serum (FBS, F7524, Sigma-Aldrich), 1% Penicillin/Streptomycin (P4333, Sigma-Aldrich).
The cytotoxic effects of the TG-101209 and its alternatives on the Caki-1 cells were tested by MTT (Thiazolyl Blue Tetrazolium Bromide) method. 1.5×10^4 cells were seeded per well in a 96-well plate in 100 μL growth media. […] After the incubation period, 5 mg/ml MTT (M2128, Sigma-Aldrich) solution in PBS (10 μL) was added to each well. After 1 hour, the MTT solution and all media were removed from the wells. 100 μl of DMSO was added and mixed to dissolve the formazan crystals. Cell viability was analysed by measuring the absorbance of the dissolved formazan at a wavelength of 570 nm with a microplate reader (Hidex Sense Beta Plus).

[2] = test system: BUB1B; assay: Western blot, BUB1B expression in Caki-1 treated with TG-101209 alternatives; details: Caki-1, 5 μM of target drug, 1 day (FIG. 41; method says 2 days)
Protocol: as §1
The target drugs developed as alternatives to TG-101209, were dissolved in 0.1% DMSO (41639, Sigma-Aldrich). Caki-1 cells from cell culture 2 were seeded in a 6-well plate at 3×10^5 cells per well. […]
The cells were washed with PBS solution and then lysed with CelLytic M (C2978, Sigma-Aldrich) lysis buffer containing protease inhibitors (11836170001, Roche). The cell lysates were centrifuged at 12 000 rpm for 10 min and supernatants were collected. Protein Assay Dye Reagent (5000006, Bio-Rad) was used for the determination of protein concentration. The absorbance of the proteins was measured spectrophotometrically at 595 nm by a microplate reader (Hidex Sense Beta Plus). Protein electrophoresis was performed using Mini-PROTEAN® TGX™ Precast Gels (4561086, Bio-Rad) and then the separated proteins were transferred to a Trans-Blot Turbo Mini 0.2 um PVDF Transfer Packs membrane (1704158, Bio-Rad) by using Trans-Blot® Turbo™ Transfer System (Bio-Rad). The membrane was blocked with 5% skim milk for 30 min at 4° C. with gentle rocking. After blocking, the membrane was treated with primary antibodies: Anti-BUB1B (HPA008419, Human Protein Atlas, Sweden) and Anti-Beta actin (ab8227, Abcam) as a loading control overnight at 4° C. on a rocking platform. After the treatment of primary antibodies, the membrane was washed three times with TBS-T buffer (A09-7500-100, Medicago). Then, Goat anti-Rabbit IgG-HRP (ab205718, Abcam) was treated as the secondary antibody for 30 min at 4° C. with gentle rocking.

[3] = test system: Caki-1 cells; assay: LDH cytotoxicity assay of Caki-1; details: 1 day; for cytotoxicity (LDH assay): Caki-1, 10 μM; for Ranking, Cytotoxicity (%): top five target drugs, LDH assay, 10 μM, rank 1 = highest cytotoxicity
Protocol: as §1
Lactate dehydrogenase (LDH) assay was performed with LDH Assay Kit (ab65393). 1.5×10^4 cells per well (from cell culture 2) were seeded in a 96-well plate and drugs were treated at 10 μM for 1 day with 200 μl media. 20 μl of media was analysed with LDH Assay Kit as per manufacturer's instruction.

Structure (SMILES) | IC50 [1] [µM] | expression levels of BUB1B [2] | cell viability (MTT assay) ([1]; Caki-1, 5 μM) | cell viability (MTT assay) ([1]; Caki-1, 10 μM) | cell viability (MTT assay) ([1]; Caki-1, 10 μM, listed as MS) | Ranking, Cell viability (%) [1] | cytotoxicity (LDH assay) [3] | Ranking, Cytotoxicity (%) [3]
Cc1cnc(Nc2ccc(N3CCN(C)CC3)cc2)nc1Nc1cccc(S(=O)(=O)Nc2ccccc2)c1 [M3, 3-((5-methyl-2-((4-(4-methylpiperazin-1-yl)phenyl)amino)pyrimidin-4-yl)amino)-N-phenylbenzenesulfonamide] | ~3 | significantly lower the expression levels of BUB1B | – | – | – | – | – | –
Cc1cnc(Nc2ccc(N3CCN(C)CC3)cc2)nc1Nc1cccc(S(=O)(=O)NC2CCC2)c1 [M5, N-cyclobutyl-3-((5-methyl-2-((4-(4-methylpiperazin-1-yl)phenyl)amino)pyrimidin-4-yl)amino)benzenesulfonamide] | ~3 | significantly lower the expression levels of BUB1B | greatest | greatest reduction of cell viability; also recorded: greatest reduction in cell viability | most profound effect on the cell viability | 1 | exhibited cytotoxicity; also recorded: highest cytotoxicity; also recorded: greatest cytotoxicity | 2
Cc1cnc(Nc2ccc(N3CCN(C)CC3)cc2)nc1Nc1cccc(S(=O)(=O)N2CCOCC2)c1 [M7, 5-methyl-N2-(4-(4-methylpiperazin-1-yl)phenyl)-N4-(3-(morpholinosulfonyl)phenyl)pyrimidine-2,4-diamine] | > 3 | significantly lower the expression levels of BUB1B | – | – | – | – | – | –
Cc1cn(-c2cc(Nc3ncc(C)c(Nc4cccc(S(=O)(=O)NC(C)(C)C)c4)n3)cc(C(F)(F)F)c2)cn1 [M64, N-(tert-butyl)-3-((5-methyl-2-((3-(4-methyl-1H-imidazol-1-yl)-5-(trifluoromethyl)phenyl)amino)pyrimidin-4-yl)amino)benzenesulfonamide] | > 3 | significantly lower the expression levels of BUB1B | – | – | – | – | – | –
Cc1ccc(Nc2ncc(C)c(Nc3cccc(S(=O)(=O)NC(C)(C)C)c3)n2)cc1S(N)(=O)=O [M66, N-(tert-butyl)-3-((5-methyl-2-((4-methyl-3-sulfamoylphenyl)amino)pyrimidin-4-yl)amino)benzenesulfonamide] | – | significantly lower the expression levels of BUB1B | greatest | most profound effect on the cell viability | – | 3 | exhibited cytotoxicity | 4
COc1cc(Nc2ncc(C)c(Nc3cccc(S(=O)(=O)NC(C)(C)C)c3)n2)cc(OC)c1 [M79, N-(tert-butyl)-3-((2-((3,5-dimethoxyphenyl)amino)-5-methylpyrimidin-4-yl)amino)benzenesulfonamide] | ~3 | significantly lower the expression levels of BUB1B | – | – | – | – | – | –
COc1cc(NC(=O)c2ccc(Nc3ncc(C)c(Nc4cccc(S(=O)(=O)NC(C)(C)C)c4)n3)cc2)cc(OC)c1 [M101A, 4-((4-((3-(N-(tert-butyl)sulfamoyl)phenyl)amino)-5-methylpyrimidin-2-yl)amino)-N-(3,5-dimethoxyphenyl)benzamide] | – | – | greatest | most profound effect on the cell viability | – | 4 | exhibited cytotoxicity | 5
Cc1cnc(Nc2ccc(C(=O)Nc3cccc(Br)c3)cc2)nc1Nc1cccc(S(=O)(=O)NC(C)(C)C)c1 [M101B, N-(3-bromophenyl)-4-((4-((3-(N-(tert-butyl)sulfamoyl)phenyl)amino)-5-methylpyrimidin-2-yl)amino)benzamide] | – | – | greatest | – | – | – | exhibited cytotoxicity | 3
Cc1cnc(Nc2ccc(C(=O)Nc3cccc(S(=O)(=O)NC(C)(C)C)c3)cc2)nc1Nc1cccc(S(=O)(=O)NC(C)(C)C)c1 [M101D, N-(3-(N-(tert-butyl)sulfamoyl)phenyl)-4-((4-((3-(N-(tert-butyl)sulfamoyl)phenyl)amino)-5-methylpyrimidin-2-yl)amino)benzamide] | – | – | greatest | most profound effect on the cell viability; also recorded: greatest reduction of cell viability; also recorded: greatest reduction in cell viability | – | 2 | exhibited cytotoxicity; also recorded: highest cytotoxicity; also recorded: greatest cytotoxicity | 1
Cc1cnc(Nc2ccc(C(=O)Nc3cccc(S(=O)(=O)N4CCOCC4)c3)cc2)nc1Nc1cccc(S(=O)(=O)NC(C)(C)C)c1 [M101F, 4-((4-((3-(N-(tert-butyl)sulfamoyl)phenyl)amino)-5-methylpyrimidin-2-yl)amino)-N-(3-(morpholinosulfonyl)phenyl)benzamide] | – | – | greatest | – | – | – | exhibited cytotoxicity | –
Cc1cnc(Nc2ccc(C(=O)Nc3ccc(OCCCN4CCOCC4)cc3)cc2)nc1Nc1cccc(S(=O)(=O)NC(C)(C)C)c1 [M101G, 4-((4-((3-(N-(tert-butyl)sulfamoyl)phenyl)amino)-5-methylpyrimidin-2-yl)amino)-N-(4-(3-morpholinopropoxy)phenyl)benzamide] | – | – | greatest | – | – | – | – | –
Cc1cnc(Nc2ccc(C(=O)Nc3ccc4ncccc4c3)cc2)nc1Nc1cccc(S(=O)(=O)NC(C)(C)C)c1 [M101H, 4-((4-((3-(N-(tert-butyl)sulfamoyl)phenyl)amino)-5-methylpyrimidin-2-yl)amino)-N-(quinolin-6-yl)benzamide] | – | – | greatest | – | – | – | – | –
Cc1cnc(Nc2ccc(OCCCN3CCOCC3)cc2)nc1Nc1cccc(S(=O)(=O)NC(C)(C)C)c1 [M103, N-(tert-butyl)-3-((5-methyl-2-((4-(3-morpholinopropoxy)phenyl)amino)pyrimidin-4-yl)amino)benzenesulfonamide] | ~3 | – | – | – | – | – | – | –
